According to ChEMBL document CHEMBL1158552, “Transkarbams as transdermal permeation enhancers: effects of ester position and ammonium carbamate formation” (Bioorg Med Chem Lett, 2010):

Assays:
[1] = Potentiation of theophylline transdermal permeation in pig ear skin at pH 7 by Franz diffusion cells method; format: ADME, Sus scrofa; details: artificial membrane
[2] = Potentiation of theophylline transdermal permeation in pig ear skin by Franz diffusion cells method; format: ADME, cell-based, Sus scrofa; details: artificial membrane

Compound | Activity [1] | Activity [2]
CCCCCCCCCCCCCCCOC(=O)CCN.Cl | Active | 
CCCCCCCCCCOC(=O)CCCCCCCN | Not Active | Active
CCCCCCCCOC(=O)CCCCCCCCCN | Not Active | Active
CCCCCCOC(=O)CCCCCCCCCCCN.Cl | Active | 
CCCCCCCCCCCCCCCOC(=O)CCN | Not Active | Active
CCCCCCCCCCCCCCOC(=O)CCCN | Not Active | Active
CCCCCCCCCCCCCCOC(=O)CCCN.Cl | Active | 
CCCCCCCCCCCCCOC(=O)CCCCN.Cl | Active | 
CCCCCCCCCCCCOC(=O)CCCCCN.Cl | Active | Active
CCCCCCCCCCCOC(=O)CCCCCCN.Cl | Active | Active
CCCCCCCCCCOC(=O)CCCCCCCN.Cl | Active | Active
CCCCCCCCOC(=O)CCCCCCCCCN.Cl | Active | 
CCCCCCOC(=O)CCCCCCCCCCCN | Not Active | Active
CCCCCCCCCCCCCOC(=O)CCCCN | Not Active | Active
CCCCCCCCCCCCOC(=O)CCCCCN | Not Active | Active
CCCCCCCCCCCOC(=O)CCCCCCN | Not Active | Active
